# Entries after “also recorded” stand apart in the source; their conditions may differ.
# Test system: Turnip Crinkle Virus (TCV)
# Experiment: Resistance of Arabidopsis to Turnip Crinkle Virus (coat protein immunoblot, symptoms)
# Format: in vivo
# Conditions: root pretreatment 1 μM
smiles,measurement,setting,value
"CC1O[C@@H](O[C@@H](C)CCCCCCCCC(=O)O)C(O)C[C@H]1O (stereo in doubt) [ascr #18, (10R)-(3′R,5′R-dihydroxy-6′S-methyl-(2H)-tetrahydropyran-2-yloxy)-undecanoic Acid]",resistance to virulent TCV,,dramatically enhanced resistance; also recorded: enhanced basal resistance
same,"disease symptoms (chlorosis, lesions, suppression of inflorescent development)",6 dpi,greatly reduced
same,systemic spread of the virus,distal leaves,largely abolished
same,viral replication (amount of viral coat protein),"inoculated and distal leaves, immune blot",greatly reduced

# Reference: US12382888B2, “Compositions and methods for modulating immunity in plants” (Boyce Thompson Institute for Plant Research, Inc., priority 2013, dated 2025)
